ChEMBL document CHEMBL1201862, “PubChem BioAssay data set” (2004)
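Step 1: Grow cells in 96-well plates. Step 2: Expose to compound for 48 hours at 5 concentrations. Step 3: Interpolate endpoints linearly; if unreached, use highest concentration. At the GI50, growth is halved.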 Active and inactive are the calls of the source. No stated cut-off is given here; in the data, active = GI50 up to about 1.1 µM and inactive = higher.

Experiments:
Assay in all cases: NCI anticancer screen, dose series, 48 h
SK-MEL-28 = system: SK-MEL-28
BT-549 = system: BT-549
RXF 393 = system: RXF 393
SR = system: SR
U-251 = system: U-251
SF-268 = system: SF-268
NCI-H460 = system: NCI-H460
SF-295 = system: SF-295
HT-29 = system: HT-29
T47D = system: T47D
UACC-257 = system: UACC-257
OVCAR-5 = system: OVCAR-5
CAKI-1 = system: CAKI-1
NCI/ADR-RES = system: NCI/ADR-RES
EKVX = system: EKVX
IGROV-1 = system: IGROV-1
SNB-75 = system: SNB-75
Hs-578T = system: Hs-578T
SW-620 = system: SW-620
SNB-19 = system: SNB-19

Measured: GI50

COc1ccc(C2=Nn3c(nc4sc5c(c4c3=O)CCCC5)SC2)cc1
inactive: SK-MEL-28 > 100 µM | BT-549 > 100 µM | RXF 393 > 100 µM | SR > 100 µM | U-251 > 100 µM | SF-268 > 100 µM | NCI-H460 > 100 µM | SF-295 > 100 µM | HT-29 > 100 µM | T47D > 100 µM | UACC-257 > 100 µM | OVCAR-5 > 100 µM | CAKI-1 > 100 µM | NCI/ADR-RES > 100 µM | EKVX > 100 µM | IGROV-1 > 100 µM | SNB-75 > 10 µM | Hs-578T 70.6 µM | SW-620 > 100 µM

COC(=O)c1ccccc1/C=C1/Cc2cccc(C)c2C1=O
inactive: SK-MEL-28 > 100 µM | BT-549 93.8 µM | RXF 393 41.2 µM | SR > 100 µM | U-251 31 µM | SF-268 73.1 µM | NCI-H460 > 100 µM | SF-295 42 µM | HT-29 > 100 µM | T47D 42.5 µM | UACC-257 > 100 µM | OVCAR-5 > 100 µM | CAKI-1 69.3 µM | NCI/ADR-RES > 100 µM | EKVX > 100 µM | IGROV-1 > 100 µM | SNB-75 35.4 µM | Hs-578T 39.7 µM | SW-620 > 100 µM

NC(=O)C1CCCN1C(=O)N(CCCl)N=O (configuration not stated)
inactive: SK-MEL-28 > 100 µM | BT-549 > 100 µM | SR > 100 µM | U-251 > 100 µM | SF-268 74.1 µM | NCI-H460 > 100 µM | SF-295 > 100 µM | HT-29 > 100 µM | T47D > 100 µM | UACC-257 > 100 µM | OVCAR-5 54.5 µM | CAKI-1 > 100 µM | SNB-19 > 100 µM | NCI/ADR-RES > 100 µM | EKVX > 100 µM | IGROV-1 > 100 µM | SNB-75 14.9 µM | Hs-578T > 100 µM | SW-620 > 100 µM

Clc1ccc(Nc2ncco2)cc1Cl
inactive: SK-MEL-28 > 10 µM | BT-549 > 10 µM | SR > 10 µM | U-251 > 10 µM | SF-268 > 10 µM | NCI-H460 > 10 µM | SF-295 > 10 µM | HT-29 > 10 µM | T47D > 10 µM | UACC-257 > 10 µM | OVCAR-5 > 10 µM | CAKI-1 > 10 µM | SNB-19 > 10 µM | NCI/ADR-RES > 10 µM | EKVX > 10 µM | IGROV-1 > 10 µM | SNB-75 > 10 µM | Hs-578T > 10 µM | SW-620 > 10 µM

COc1cccc(C2SCC(=O)N2c2ccc(-c3ccc(-n4c(-c5ccccc5)nc5ccccc5c4=O)cc3)cc2)c1OC (configuration not stated)
inactive: SK-MEL-28 > 100 µM | BT-549 42 µM | SR 60.1 µM | U-251 34.6 µM | SF-268 71.8 µM | NCI-H460 > 100 µM | SF-295 > 100 µM | HT-29 68.4 µM | T47D 24.5 µM | UACC-257 > 100 µM | OVCAR-5 > 100 µM | CAKI-1 67.8 µM | SNB-19 > 100 µM | NCI/ADR-RES > 100 µM | EKVX > 100 µM | IGROV-1 99.1 µM | SNB-75 22 µM | Hs-578T 58.9 µM | SW-620 > 10 µM

Cc1nc2cc(Cl)c(N)cc2[nH]1
inactive: SK-MEL-28 > 100 µM | BT-549 > 100 µM | SR > 100 µM | U-251 > 100 µM | SF-268 > 100 µM | NCI-H460 > 100 µM | SF-295 > 100 µM | HT-29 > 100 µM | T47D > 100 µM | UACC-257 > 100 µM | OVCAR-5 > 100 µM | CAKI-1 > 100 µM | SNB-19 > 100 µM | NCI/ADR-RES > 100 µM | EKVX > 100 µM | IGROV-1 > 100 µM | SNB-75 > 100 µM | Hs-578T > 100 µM | SW-620 > 100 µM

COc1cc(O)c2c(=O)c(OC)c(-c3ccc4c(c3)OCO4)oc2c1
inactive: SK-MEL-28 > 100 µM | BT-549 4.04 µM | RXF 393 11.2 µM | SR > 100 µM | U-251 9.27 µM | SF-268 4.31 µM | NCI-H460 6.01 µM | SF-295 14.4 µM | HT-29 > 100 µM | T47D > 100 µM | UACC-257 > 100 µM | OVCAR-5 > 100 µM | SNB-19 5.66 µM | NCI/ADR-RES > 100 µM | EKVX > 60.8 µM | IGROV-1 > 52 µM | SNB-75 5.9 µM | Hs-578T 21.6 µM | SW-620 > 100 µM

Cn1c2ccccc2c2c(=O)[nH]c(=O)[nH]c21
inactive: SK-MEL-28 > 100 µM | BT-549 > 100 µM | RXF 393 > 100 µM | SR > 100 µM | U-251 > 100 µM | SF-268 > 100 µM | SF-295 > 100 µM | HT-29 > 100 µM | T47D > 100 µM | UACC-257 > 100 µM | OVCAR-5 > 100 µM | CAKI-1 > 100 µM | SNB-19 > 100 µM | NCI/ADR-RES > 100 µM | EKVX > 100 µM | IGROV-1 > 100 µM | SNB-75 82.4 µM | Hs-578T > 100 µM | SW-620 > 100 µM
